Data set [1] concerns rabbit ligated ileal loops. Conditions: in vivo.
Data set [2] has as its system goat hyperimmune antiserum to synthetic ST. Particulars: in vivo.
The conditions of data set [3]: in vivo, po.
A further data set deals with suckling mouse. Particulars: in vivo.
For data set [4], the system named is hyperimmune antisera to synthetic ST. In kind it is binding, goat and rabbit.
For data set [5], the system named is hyperimmune antisera to biologic ST. In kind it is binding, goat and rabbit.
Data set [6] concerns hyperimmune rabbit antiserum to biologic ST. Conditions: in vivo.
For the next data set, the system named is rat ligated ileal loops. Conditions: in vivo.

Where no end group is shown, it is not given here.

Take “NTFYCCELCCYPACAGCN (cysteine pairing not given here) [synthetic ST]”: in data set [1], the “fluid secretion in rabbit ligated ileal loops” value is on record as “did not cause any fluid secretion” and the “fluid:length ratio in rabbit ligated ileal loops” value worked out at 1.1±0.3. The “mouse units of toxin neutralized by one milliliter of goat hyperimmune antiserum to synthetic ST” value in data set [2] worked out at 220 MU. In data set [3], the “diarrhea after p.o. administration” value was “did not cause diarrhea”. In the data set on suckling mouse, the “Nanograms required to provide a gut: whole body ratio of 0.083” value was found to be 5.3 ng, the “Suckling Mouse (Percent)” value worked out at 120, the “biological activity / potency in suckling mouse assay compared with biologic (E. coli) ST” value was “substantially the same as biologic ST” and the “mouse units of ST activity per microgram” value is 175 mouse units per microgram. In the data set on suckling mouse, the “reduction of ST toxicity by the cross-linking reaction to B subunit” value stood at 727 fold, the “secretory activity in the suckling mouse assay after dithiothreitol” value is reported as “abolished its secretory activity” and the “value for one mouse unit” value amounted to 5.7 nanograms. Also, in data set [4], the “Anti-Syn. ST: percent recognition of assayed ST by antiserum raised to synthetic ST” value stood at 100 and the “antigenicity compared with biologic ST” value is reported as “identical”. Moreover, in data set [5], the “Anti-Biol.-ST: percent recognition of assayed ST by antiserum raised to biologic ST” value was 263 and the “antigenicity relative to biologic ST Ib, later preparations” value is reported as “about 3 fold”. Also, the “mouse units of toxin neutralized by one milliliter of hyperimmune rabbit antiserum to biologic ST” value in data set [6] is given as 160 MU. Further, in the data set on rat ligated ileal loops, the “ED50 in rat ligated ileal loops” value is recorded as 2.0 nanograms and the “secretory responses in ligated ileal loops compared with biologic ST” value is on record as “Substantial identity of secretory responses”.
